Laboratory results published in publication PMC6367362, “MD001, a Novel Peroxisome Proliferator-activated Receptor α/γ Agonist, Improves Glucose and Lipid Metabolism” (Scientific Reports, 2019).

Key:
[1] = target: T1, human HA-PPARα (Homo sapiens, UniProt Q07869); experiment: PPRE luciferase activity assay in HEK293 cells transfected with HA-PPARα; assay type: cell-based; set-up: transcriptional activity of PPARα: dose or concentration left out as unconfirmed; conditions: HEK293, PPRE-pk-Luc
T1 construct: expressed in transfected cells; host or cells: HEK293
T1 sequence (Q07869 1-468): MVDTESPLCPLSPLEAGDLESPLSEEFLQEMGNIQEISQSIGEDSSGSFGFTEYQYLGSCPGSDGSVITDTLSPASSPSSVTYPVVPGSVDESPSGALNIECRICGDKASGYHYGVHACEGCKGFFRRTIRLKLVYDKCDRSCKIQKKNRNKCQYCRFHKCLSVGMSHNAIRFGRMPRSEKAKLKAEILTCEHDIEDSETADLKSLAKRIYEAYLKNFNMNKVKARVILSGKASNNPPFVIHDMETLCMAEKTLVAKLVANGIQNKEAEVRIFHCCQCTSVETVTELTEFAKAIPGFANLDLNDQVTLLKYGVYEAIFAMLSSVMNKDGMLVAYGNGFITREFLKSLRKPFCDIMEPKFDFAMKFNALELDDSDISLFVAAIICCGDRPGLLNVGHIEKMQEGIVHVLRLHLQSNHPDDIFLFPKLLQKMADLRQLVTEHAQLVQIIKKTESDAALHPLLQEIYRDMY
Procedure: Figure 2 MD001 induces the expression of target genes through PPARα and PPARγ activation. HEK293 cells were transiently co-transfected with human HA-PPARα (A) and HA-PPARγ (B) expression vectors along with the reporter plasmid (PPRE-pk-Luc) or control reporter plasmid (pk-Luc) with Renilla vector for 24 h. Cells were treated with MD001 (10 μM), rosiglitazone (rosi) (10 μM) or WY14643 (WY) (10 μM) for 24 h. Luciferase activity was normalised to Renilla luciferase activity as described in the Methods section. **, vs. vehicle. (C) HepG2 cells were treated with MD001 (10 μM) for 24 h, and total RNA was isolated and synthesised into cDNA. Relative expression was quantitated using qRT-PCR. **, vs. vehicle. (D,E) HepG2 cells were transfected with control siRNA, PPARα siRNA (D), or PPARγ siRNA (E) for 48 h and treated with vehicle, WY14643 (10 μM), rosiglitazone (10 μM) or MD001 (10 μM) for 24 h. Subsequently, cells were harvested for total RNA isolation. Relative expression of target genes was quantitated using qRT-PCR. ^#, vs. control siRNA; ^‡, vs. control siRNA/vehicle; ^§, vs. control siRNA/WY; * and **, vs. control siRNA/MD001. Data represent the mean ± SD of three independent experiments. *P < 0.05, **P < 0.01, ^#P < 0.01, ^‡P < 0.01, and ^§P < 0.01.
For transient transfection, cells were transfected with plasmid DNA constructs by polyethylenimine (PEI, Polysciences, Inc., Warrington, PA, USA) according to the manufacturer’s instructions. Transcription activity assays of PPARα and PPARγ in HEK293 cells were performed by co-transfection of HA-PPARα, HA-PPARγ, and peroxisome proliferator-response element (PPRE) reporter plasmid (PPRE-pk-Luc) or control reporter plasmid (pk-Luc) with Renilla vector for 24 h. […] Luciferase activity was measured with the Dual-Luciferase Reporter Assay System (Promega, Madison, WI, USA) and quantified using GloMax (Promega, USA) according to the manufacturer’s protocol. […]
Luciferase activity was measured as described in the Methods section. […]

[2] = system: HepG2 cells; experiment: In vitro glucose consumption assay, HepG2; assay type: cell-based, human; conditions: 10, 50 μM, 24 h
Procedure: Figure 3 MD001 promotes glucose consumption by induction of GLUT expression. HepG2 (A), differentiated 3T3-L1 adipocytes (B), and differentiated C2C12 myotubes (C) were treated with vehicle, MD001 (10, 50 μM), or rosiglitazone (rosi, 10 μM) for 24 h; glucose consumption was examined as described in the Methods section. Cells were harvested for total RNA isolation. Relative expression levels of GLUT2 (D) and GLUT4 (E,F) were quantitated using qRT-PCR. *, **, and ^† vs. vehicle. Data represent the mean ± SD of three independent experiments. *P < 0.05, **P < 0.01, and ^†P < 0.01.
The glucose consumption assay was performed as previously described. Briefly, cells were treated with MD001 or rosiglitazone […]. The conditioned medium from cultured cells was harvested and assayed for glucose content using a Glucose Colorimetric Assay Kit II (BioVision Inc., Milpitas, CA, USA).

Question: Which “transcription via PPARα activation (luciferase activity)” value ([1]; 10 μM, 24 h, vs. vehicle) does the source give for `Cc1c(O)cc(O)c2c(-c3ccccc3)c(C(=O)/C=C/c3ccccc3)c(=O)oc12` [MD001] here?
Answer: significantly increased

Question: What about the “transcriptional activity of PPARα” value ([1]; 24 h (Supplementary Fig. S2)) of the same molecule?
Answer: promoted simultaneous transcriptional activity

Question: What about the glucose consumption [2] of the same molecule?
Answer: significantly increased glucose consumption in a dose-dependent manner
